This is an account of results in US20140235676A1, “RXR AGONIST COMPOUNDS AND METHODS” (Case Western Reserve University, priority 2011, published 2014).

Data set [1] concerns primary microglia. Briefly: Intracellular Aβ degradation by primary microglia. Format: cell-based, murine. An excerpt:
FIG. 5 illustrates graphs showing RXR agonists stimulate Aβ degradation.
Given the ability of RXR activation to drive LXR target gene expression, we predicted that agonist treatment should promote the proteolytic degradation of Aβ by microglia. […] Aβ uptake was unaffected by either drug treatment.

The subject of data set [2] is microglia. Briefly: Inhibition of RXR mediated intracellular Aβ degradation by PPARγ or LXR inhibitors, microglia. Format: cell-based. The settings on record: inhibitor pretreatment 1.5 hrs, Bexarotene 24 hours, 2 ug/mL soluble Aβ 18 hours. An excerpt: (§1) FIG. 14 illustrates graphs showing RXR mediated intracellular Aβ degradation is prevented by inhibiting PPARγ or LXR.
(§2) To determine which heterodimer partners are involved in RXR activation driven Aβ intracellular degradation, we inhibited PPARγ and LXR by competitive inhibitors, TO and 22-s-Hydroxycholesterol, respectively. Aβ degradation mediated by either microglia (A) or astrocytes (B) is inhibited with either inhibitor to PPAR or LXR. Additionally, a co-treatment with both inhibitors reduces Aβ degradation further (FIG. 14).

For data set [3], the system named is astrocytes. Briefly: Inhibition of RXR mediated intracellular Aβ degradation by PPARγ or LXR inhibitors, astrocytes. Particulars: inhibitor pretreatment 1.5 hrs, Bexarotene 24 hours, 2 ug/mL soluble Aβ 18 hours. Format: cell-based.
Source text: as §1, §2

For data set [4], the system named is ApoE knock out astrocytes. Briefly: Intracellular Aβ degradation in ApoE knock out astrocytes. Format: cell-based, murine. The settings on record: without ApoE.
Data set [5] has as its system ApoE knock out microglia. Briefly: Intracellular Aβ degradation in ApoE knock out microglia. Format: cell-based, murine. The settings on record: without ApoE.
For data set [6] the following is noted: extended periods in humans; cited from earlier work.
The conditions of data set [7]: therapeutic doses, FDA alert May 21, 2007; cited from earlier work.

Each structure is given as a SMILES string.

Regarding `CC1=C(/C=C/C(C)=C\C=C\C(C)=C\C(=O)O)C(C)(C)CCC1` [9cisRA], the Aβ uptake result in data set [1] is given as “unaffected”. Also, the “intracellular Aβ levels” value in data set [1] (drug 24 hours then 18 hours with 2 μg/mL soluble Aβ) was “dose-dependent reduction”.
As for `CC(C)CC[C@H](O)[C@@H](C)[C@H]1CC[C@H]2[C@@H]3CC=C4C[C@@H](O)CC[C@]4(C)[C@H]3CC[C@]12C` [22-s-Hydroxycholesterol], the “Bexarotene driven intracellular Aβ degradation” value in data set [2] and in data set [3] was “inhibited” each time.
With `C=C(c1ccc(C(=O)O)cc1)c1cc2c(cc1C)C(C)(C)CCC2(C)C` [Bexarotene], the “intracellular Aβ degradation” value in data set [4] and in data set [5] was “no effect” in each case. The clinical safety profile entry in data set [6] is “good safety profile”.
Take `CN(CCOc1ccc(CC2SC(=O)NC2=O)cc1)c1ccccn1` (stereo not drawn) [rosiglitazone, 5-[4-[2-(N-methyl-N-(2-pyridyl)amino]ethoxy]benzyl]thiazolidine-2,4-dione]: in data set [7], the “risk of death from all cardiovascular diseases” value is “even higher risk of death from all cardiovascular diseases” and the “risk of heart attack” value is recorded as “significantly increased risk of heart attack”.
